The values below come from ChEMBL document CHEMBL1201862, “PubChem BioAssay data set” (2004).

Among the test systems are NCI-H23; NCI/ADR-RES; HOP-92; NCI-H226; OVCAR-4; SF-295; SF-268; COLO 205; SNB-19; EKVX; K562; A498; PC-3; MDA-N; HCC 2998; A549; SN12C; RPMI-8226; UO-31; SW-620.
What all share (assay): inhibition of tumour cell growth, NCI panel, 48 h

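Method: 48-hour compound exposure of cells in 96-well plates, five concentrations, linear interpolation of endpoints. GI50 marks 50% less growth.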 Calls of active or inactive are those of the source. No stated cut-off is given here; in the data, active = GI50 up to about 1.1 µM and inactive = higher.

For the compound `COC(=O)c1cc2c(cc1Cl)Sc1nnc(Nc3ccc(C)cc3)n1S2(=O)=O`, the GI50 is 3.61 µM (inactive) in the assay with NCI-H23; 11.1 µM (inactive) in the assay with NCI/ADR-RES; 3.66 µM (inactive) with HOP-92; 12.1 µM (inactive) with NCI-H226; 2.76 µM (inactive) in the assay with OVCAR-4; 10.9 µM (inactive) in the assay on SF-295. Moreover, the GI50 with SF-268 is 3.6 µM (inactive); in the assay with COLO 205, 4.84 µM (inactive); in the assay with SNB-19 it was 5.81 µM (inactive); in the assay on EKVX it was 12.9 µM (inactive); with K562 it was 5.13 µM (inactive); in the assay on A498, 15.2 µM (inactive). Besides, the GI50 was 4.85 µM (inactive) in the assay on PC-3; 6.44 µM (inactive) in the assay on MDA-N; 4.75 µM (inactive) with HCC 2998; 15.4 µM (inactive) in the assay with A549; 18.1 µM (inactive) in the assay with SN12C; 2.17 µM (inactive) with RPMI-8226. Further, in the assay with UO-31, the GI50 was 10.5 µM (inactive).

Consider `CC[C@]12C=CCN3CC[C@@]4(c5cc(Br)c(OC)cc5N(C)[C@H]4[C@@](O)(C(=O)NN)[C@@H]1O)[C@@H]32`, for which the GI50 in the assay on NCI-H23 was 68.1 µM (inactive); in the assay on NCI/ADR-RES, > 100 µM (inactive); in the assay on HOP-92 it was > 100 µM (inactive); with NCI-H226 it was 43 µM (inactive); in the assay on OVCAR-4 it was 96.6 µM (inactive); in the assay with SW-620, > 100 µM (inactive). For the same compound, the GI50 with SF-295 was 65.5 µM (inactive); in the assay with SF-268 it was 56.1 µM (inactive); with COLO 205, > 100 µM (inactive); in the assay on SNB-19, 91.6 µM (inactive); with EKVX, 59.4 µM (inactive); with K562, 48.2 µM (inactive). For the same compound, the GI50 was 36.8 µM (inactive) with A498; 28.1 µM (inactive) in the assay with PC-3; 48.1 µM (inactive) in the assay with MDA-N; > 100 µM (inactive) in the assay with HCC 2998; > 100 µM (inactive) in the assay with A549; 76.9 µM (inactive) in the assay with SN12C. In addition, the GI50 in the assay with UO-31 is > 100 µM (inactive).

Consider `O=[N+]([O-])c1ccc2[nH]ncc2c1Cl`, for which the GI50 with NCI/ADR-RES was 26.5 µM (inactive); in the assay on HOP-92, 63 µM (inactive); with NCI-H226, 8.69 µM (inactive); in the assay on OVCAR-4 it was 26.8 µM (inactive); in the assay on SW-620 it was 31.6 µM (inactive); in the assay on SF-295, 86.3 µM (inactive). The GI50 in the assay on COLO 205 is 13.4 µM (inactive); with SNB-19 it was 36.8 µM (inactive); in the assay with EKVX, 20.6 µM (inactive); in the assay with K562 it was 18.3 µM (inactive); in the assay on A498, 74.6 µM (inactive); in the assay with PC-3, 29.6 µM (inactive). Also, the GI50 is 16.1 µM (inactive) in the assay with MDA-N; 29.6 µM (inactive) with HCC 2998; 45 µM (inactive) in the assay on A549; 31.7 µM (inactive) in the assay with SN12C; 20.1 µM (inactive) in the assay with RPMI-8226.

Regarding `CC(=O)O[C@H]1[C@H](OC(C)=O)[C@@H](CN=[N+]=[N-])OCO[C@@H]1CN=[N+]=[N-]`, the GI50 in the assay on NCI-H23, in the assay on NCI/ADR-RES, in the assay with HOP-92, in the assay with NCI-H226, in the assay on OVCAR-4 and with SW-620 was > 100 µM (inactive) in each case. The GI50 with SF-295, in the assay with SF-268, in the assay with COLO 205, in the assay with SNB-19, in the assay with EKVX and in the assay on K562 was > 100 µM (inactive) each time. Moreover, the GI50 with A498, with PC-3, with MDA-N, in the assay with HCC 2998, with A549 and in the assay with SN12C was > 100 µM (inactive) in each case. The GI50 with RPMI-8226 was > 100 µM (inactive).

`Cc1ccc(O)c(-c2cscn2)c1`: the GI50 was 39.4 µM (inactive) in the assay with NCI-H23; 51.9 µM (inactive) with NCI/ADR-RES; 43.7 µM (inactive) in the assay on HOP-92; 54 µM (inactive) in the assay with OVCAR-4; 51.5 µM (inactive) in the assay on SW-620; 40 µM (inactive) in the assay with SF-295. Further, the GI50 in the assay on COLO 205 was 12.5 µM (inactive); with SNB-19, 25.1 µM (inactive); with EKVX, 32.2 µM (inactive); in the assay on K562, 52 µM (inactive); in the assay on A498 it was 15.3 µM (inactive); in the assay on PC-3, 39.8 µM (inactive). In addition, the GI50 was 40.2 µM (inactive) in the assay on MDA-N; 24.7 µM (inactive) with HCC 2998; 29.7 µM (inactive) in the assay with A549; 35.2 µM (inactive) in the assay with SN12C; 36 µM (inactive) in the assay on RPMI-8226; 22.8 µM (inactive) in the assay with UO-31.

Turning to `Brc1cccc(Nc2ncnc3sc4c(c23)CCC2(C4)OCCO2)c1`, the GI50 in the assay on NCI-H23 is 29.8 µM (inactive); in the assay on NCI/ADR-RES, 22.3 µM (inactive); in the assay on HOP-92, 10.7 µM (inactive); in the assay on NCI-H226 it was 18.6 µM (inactive); in the assay on OVCAR-4, 20.1 µM (inactive); in the assay with SW-620, 0.0203 µM (active). Moreover, the GI50 with SF-295 is 32.5 µM (inactive); with SF-268 it was 27.6 µM (inactive); with COLO 205, 18 µM (inactive); in the assay with SNB-19 it was 34.3 µM (inactive); in the assay with EKVX it was 19.3 µM (inactive); with A498, 15.3 µM (inactive). Further, the GI50 in the assay on PC-3 is 33.7 µM (inactive); in the assay on MDA-N, 33.6 µM (inactive); in the assay with HCC 2998, 23.7 µM (inactive); with A549 it was 80 µM (inactive); in the assay on SN12C, 27.4 µM (inactive); with UO-31, 2.07 µM (inactive).

`CC(/C=C/c1ccccc1)=N\NC(N)=S`: the GI50 with NCI-H23 was 74 µM (inactive); in the assay with NCI/ADR-RES it was 27.9 µM (inactive); with HOP-92, > 100 µM (inactive); in the assay with NCI-H226 it was 80 µM (inactive); in the assay on SW-620, 50.4 µM (inactive); with SF-295, 21.5 µM (inactive). In addition, the GI50 in the assay with SF-268 is 61.7 µM (inactive); in the assay on COLO 205, 20.5 µM (inactive); in the assay on SNB-19, 24 µM (inactive); with EKVX it was 17.7 µM (inactive); with A498 it was 22.2 µM (inactive); in the assay with PC-3 it was 90.8 µM (inactive). Also, the GI50 is 29.6 µM (inactive) in the assay on MDA-N; 21.6 µM (inactive) in the assay with HCC 2998; 47.5 µM (inactive) with A549; 42.1 µM (inactive) in the assay with SN12C; 33.7 µM (inactive) in the assay with RPMI-8226; 32.1 µM (inactive) in the assay with UO-31.

Take `COc1ccc(S(=O)(=O)Nc2ccc(-c3csc(N4C(=O)/C(=C/c5cccs5)N=C4c4ccccc4)n3)cc2)cc1Cl`: the GI50 in the assay with NCI-H23 is 21.5 µM (inactive); with NCI/ADR-RES, 39.4 µM (inactive); with HOP-92, 22.5 µM (inactive); in the assay with NCI-H226, 65.5 µM (inactive); in the assay with OVCAR-4, 40.2 µM (inactive); with SW-620, 50.9 µM (inactive). Further, the GI50 is 10.4 µM (inactive) in the assay on SF-295; 30.5 µM (inactive) in the assay with SF-268; 40.6 µM (inactive) in the assay with COLO 205; 49.7 µM (inactive) in the assay with SNB-19; 38.7 µM (inactive) in the assay on K562; 24.3 µM (inactive) with A498. For the same compound, the GI50 in the assay on PC-3 is 34.8 µM (inactive); in the assay with MDA-N it was 34.1 µM (inactive); in the assay with HCC 2998, 44.7 µM (inactive); with A549 it was 38.9 µM (inactive); with SN12C it was 66.2 µM (inactive); in the assay with UO-31, 28.1 µM (inactive).

For `Oc1ccccc1/C=N/c1ccc(-c2nc3ccccc3[nH]2)cc1`, the GI50 in the assay on NCI-H23 was 50.5 µM (inactive); with NCI/ADR-RES, 4.53 µM (inactive); in the assay with HOP-92, 22.9 µM (inactive); in the assay on NCI-H226 it was > 100 µM (inactive); in the assay with OVCAR-4 it was > 100 µM (inactive); with SW-620, 90.2 µM (inactive). The GI50 in the assay with SF-295 was 71 µM (inactive); with SF-268, 43 µM (inactive); in the assay with COLO 205, 47.2 µM (inactive); in the assay on SNB-19 it was > 100 µM (inactive); in the assay with EKVX, > 100 µM (inactive); with K562 it was 43.2 µM (inactive). Moreover, the GI50 with A498 was > 100 µM (inactive); in the assay with PC-3 it was 50.5 µM (inactive); with MDA-N it was 54.7 µM (inactive); in the assay with A549, > 100 µM (inactive); in the assay on SN12C it was 79.1 µM (inactive); with RPMI-8226, 26.6 µM (inactive). In the assay on UO-31, the GI50 was 63.1 µM (inactive).

For `CCOC(=O)/C=C(/C(=O)OCC)n1cc(Cl)c(=O)n(CC(=O)OCC)c1=O`, the GI50 with NCI-H23 was 5.74 µM (inactive); in the assay on NCI/ADR-RES it was 8.95 µM (inactive); with HOP-92, 5.15 µM (inactive); in the assay on NCI-H226, > 25 µM (inactive); in the assay on OVCAR-4, 6.03 µM (inactive); in the assay with SW-620, 0.995 µM (active). In addition, the GI50 in the assay with SF-295 was > 25 µM (inactive); in the assay with SF-268, 7.05 µM (inactive); in the assay on COLO 205, 0.787 µM (active); with SNB-19, > 25 µM (inactive); with EKVX, 5.27 µM (inactive); in the assay with K562, 2.1 µM (inactive). In addition, the GI50 was 17.5 µM (inactive) in the assay on A498; 4.76 µM (inactive) in the assay with PC-3; 5.81 µM (inactive) with MDA-N; 6.41 µM (inactive) with A549; 5.64 µM (inactive) in the assay on SN12C; 2.47 µM (inactive) in the assay on RPMI-8226.

Turning to `Cc1ccc(NCc2nnc3c(-c4ccccc4)nc4ccccc4n23)cc1`, the GI50 with NCI/ADR-RES was 50.9 µM (inactive); with HOP-92 it was 16 µM (inactive); in the assay with NCI-H226, 44 µM (inactive); in the assay with OVCAR-4, 28.2 µM (inactive); with SW-620 it was 39.3 µM (inactive); in the assay on SF-295 it was 33.7 µM (inactive). Moreover, the GI50 was 43.6 µM (inactive) in the assay with SF-268; 32.8 µM (inactive) with COLO 205; 38 µM (inactive) with SNB-19; 18.7 µM (inactive) in the assay with EKVX; 13 µM (inactive) in the assay on K562; 32.6 µM (inactive) with A498. Besides, the GI50 with PC-3 is 19.1 µM (inactive); in the assay with MDA-N it was 26.2 µM (inactive); in the assay with HCC 2998, 44.6 µM (inactive); with A549, 23.2 µM (inactive); in the assay on SN12C, 32.6 µM (inactive).
